# PubChem BioAssay AID2060491 (Molecular Pharmacology Branch, DTP, NCI, 2025)
# Tested on: 857933-349-R-J2-PDC complex spheroids, viability
# Experiment: Anticancer human tumor 857933-349-R-J2-PDC patient-derived colon adenocarcinoma cell line growth inhibition [GQUAD]
# Conditions: for IC50: curve of first compound; for viability, T/C: stronger effect = lower value
# How it was run: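 Tumor cells were grown as complex spheroids with HUVEC endothelial cells and mesenchymal stem cells as stroma. G-quadruplex stabilizers were combined with targeted agents over half-log dilutions from near the clinical Cmax, or from 10 microM.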
# [1] = second compound 0.0316 µM, first compound 0.0316 µM
# [2] = second compound 0.0316 µM, first compound 0.1 µM
# [3] = second compound 0.0316 µM, first compound 0.316 µM
# [4] = second compound 0.0316 µM, first compound 1 µM
# [5] = second compound 0.0316 µM, first compound 3.16 µM
# [6] = second compound 0.0316 µM, first compound 10 µM
# [7] = second compound 0.1 µM, first compound 0.0316 µM
# [8] = second compound 0.1 µM, first compound 0.1 µM
# [9] = second compound 0.1 µM, first compound 0.316 µM
# [10] = second compound 0.1 µM, first compound 1 µM
# [11] = second compound 0.1 µM, first compound 3.16 µM
# [12] = second compound 0.1 µM, first compound 10 µM
# [13] = second compound 0.316 µM, first compound 0.0316 µM
# [14] = second compound 0.316 µM, first compound 0.1 µM
# [15] = second compound 0.316 µM, first compound 0.316 µM
# [16] = second compound 0.316 µM, first compound 1 µM
# [17] = second compound 0.316 µM, first compound 3.16 µM
# [18] = second compound 0.316 µM, first compound 10 µM
# [19] = second compound 1 µM, first compound 0.0316 µM
# [20] = second compound 1 µM, first compound 0.1 µM
# [21] = second compound 1 µM, first compound 0.316 µM
# [22] = second compound 1 µM, first compound 1 µM
# [23] = second compound 1 µM, first compound 3.16 µM
# [24] = second compound 1 µM, first compound 10 µM
# [25] = second compound 3.16 µM, first compound 0.0316 µM
# [26] = second compound 3.16 µM, first compound 0.1 µM
# [27] = second compound 3.16 µM, first compound 0.316 µM
# [28] = second compound 3.16 µM, first compound 1 µM
# [29] = second compound 3.16 µM, first compound 3.16 µM
# [30] = second compound 3.16 µM, first compound 10 µM
# [31] = second compound 10 µM, first compound 0.0316 µM
# [32] = second compound 10 µM, first compound 0.1 µM
# [33] = second compound 10 µM, first compound 0.316 µM
# [34] = second compound 10 µM, first compound 1 µM
# [35] = second compound 10 µM, first compound 3.16 µM
# [36] = second compound 10 µM, first compound 10 µM
# 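Note: spheroids exposed to compounds for one week before readout.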
# 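Throughout, for viability, T/C: percent viability relative to vehicle DMSO wells taken as 100%.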
compound,measurement,setting,value
C#Cc1c(F)ccc2cc(O)cc(-c3ncc4c(N5CC6CCC(C5)N6)nc(OCC56CCCN5CC(F)C6)nc4c3F)c12 (stereo unspecified) + CN(C)c1ccc(Nc2c3ccc(NC(=O)CCN4CCCC4)cc3nc3cc(NC(=O)CCN4CCCC4)ccc23)cc1,IC50,second compound 0.0316 µM,> 10 µM
same,IC50,second compound 0.1 µM,> 10 µM
same,IC50,second compound 0.316 µM,> 10 µM
same,IC50,second compound 1 µM,> 10 µM
same,IC50,second compound 3.16 µM,> 10 µM
same,IC50,second compound 10 µM,> 10 µM
same,"viability, T/C",[1],111%
same,"viability, T/C",[2],96.2%
same,"viability, T/C",[3],98.1%
same,"viability, T/C",[4],96.8%
same,"viability, T/C",[5],102%
same,"viability, T/C",[6],90.3%
same,"viability, T/C",[7],104%
same,"viability, T/C",[8],104%
same,"viability, T/C",[9],96.1%
same,"viability, T/C",[10],101%
same,"viability, T/C",[11],94.3%
same,"viability, T/C",[12],94.6%
same,"viability, T/C",[13],99.1%
same,"viability, T/C",[14],97%
same,"viability, T/C",[15],95.5%
same,"viability, T/C",[16],92%
same,"viability, T/C",[17],96.2%
same,"viability, T/C",[18],87%
same,"viability, T/C",[19],97.1%
same,"viability, T/C",[20],88.7%
same,"viability, T/C",[21],91.3%
same,"viability, T/C",[22],77.8%
same,"viability, T/C",[23],91.4%
same,"viability, T/C",[24],80.3%
same,"viability, T/C",[25],81.6%
same,"viability, T/C",[26],75.1%
same,"viability, T/C",[27],80.6%
same,"viability, T/C",[28],69.7%
same,"viability, T/C",[29],78.2%
same,"viability, T/C",[30],74.7%
same,"viability, T/C",[31],67.4%
same,"viability, T/C",[32],67.5%
same,"viability, T/C",[33],63.5%
same,"viability, T/C",[34],68.8%
same,"viability, T/C",[35],71%
same,"viability, T/C",[36],58.9%
CCCS(=O)(=O)Nc1ccc(F)c(C(=O)c2c[nH]c3ncc(-c4ccc(Cl)cc4)cc23)c1F + CN(C)c1ccc(Nc2c3ccc(NC(=O)CCN4CCCC4)cc3nc3cc(NC(=O)CCN4CCCC4)ccc23)cc1,IC50,second compound 0.0316 µM,5.65 µM
same,IC50,second compound 0.1 µM,5.53 µM
same,IC50,second compound 0.316 µM,5.65 µM
same,IC50,second compound 1 µM,5.45 µM
same,IC50,second compound 3.16 µM,5.03 µM
same,IC50,second compound 10 µM,3.18 µM
same,"viability, T/C",[1],108%
same,"viability, T/C",[2],101%
same,"viability, T/C",[3],102%
same,"viability, T/C",[4],96.8%
same,"viability, T/C",[5],95.5%
same,"viability, T/C",[6],5.26%
same,"viability, T/C",[7],110%
same,"viability, T/C",[8],106%
same,"viability, T/C",[9],96.4%
same,"viability, T/C",[10],106%
same,"viability, T/C",[11],92.5%
same,"viability, T/C",[12],5.04%
same,"viability, T/C",[13],104%
same,"viability, T/C",[14],101%
same,"viability, T/C",[15],96.5%
same,"viability, T/C",[16],96.7%
same,"viability, T/C",[17],95.3%
same,"viability, T/C",[18],5.41%
same,"viability, T/C",[19],101%
same,"viability, T/C",[20],89.6%
same,"viability, T/C",[21],96.7%
same,"viability, T/C",[22],93.1%
same,"viability, T/C",[23],89.9%
same,"viability, T/C",[24],5.58%
same,"viability, T/C",[25],83.5%
same,"viability, T/C",[26],73.5%
same,"viability, T/C",[27],81.2%
same,"viability, T/C",[28],75.8%
same,"viability, T/C",[29],79.7%
same,"viability, T/C",[30],7.65%
same,"viability, T/C",[31],63.1%
same,"viability, T/C",[32],66.5%
same,"viability, T/C",[33],56.8%
same,"viability, T/C",[34],59.1%
same,"viability, T/C",[35],51%
same,"viability, T/C",[36],12.3%
COc1cccc2c1C(=O)c1c(O)c3c(c(O)c1C2=O)CC(O)(C(=O)CO)CC3OC1CC(N)C(O)C(C)O1 (stereo unspecified) + CN(C)c1ccc(Nc2c3ccc(NC(=O)CCN4CCCC4)cc3nc3cc(NC(=O)CCN4CCCC4)ccc23)cc1,IC50,second compound 0.0316 µM,0.917 µM
same,IC50,second compound 0.1 µM,0.828 µM
same,IC50,second compound 0.316 µM,0.663 µM
same,IC50,second compound 1 µM,0.711 µM
same,IC50,second compound 3.16 µM,0.739 µM
same,IC50,second compound 10 µM,0.978 µM
same,"viability, T/C",[1],100%
same,"viability, T/C",[2],97.1%
same,"viability, T/C",[3],76.7%
same,"viability, T/C",[4],52.2%
same,"viability, T/C",[5],8.8%
same,"viability, T/C",[6],0.64%
same,"viability, T/C",[7],99.2%
same,"viability, T/C",[8],92.8%
same,"viability, T/C",[9],79.3%
same,"viability, T/C",[10],45.4%
same,"viability, T/C",[11],9.85%
same,"viability, T/C",[12],0.72%
same,"viability, T/C",[13],102%
same,"viability, T/C",[14],95.8%
same,"viability, T/C",[15],72.7%
same,"viability, T/C",[16],37.3%
same,"viability, T/C",[17],10.8%
same,"viability, T/C",[18],0.64%
same,"viability, T/C",[19],103%
same,"viability, T/C",[20],86%
same,"viability, T/C",[21],76.2%
same,"viability, T/C",[22],39.6%
same,"viability, T/C",[23],12.5%
same,"viability, T/C",[24],0.68%
same,"viability, T/C",[25],91.6%
same,"viability, T/C",[26],76.8%
same,"viability, T/C",[27],73.7%
same,"viability, T/C",[28],42.6%
same,"viability, T/C",[29],11.9%
same,"viability, T/C",[30],0.97%
same,"viability, T/C",[31],70.7%
same,"viability, T/C",[32],73.4%
same,"viability, T/C",[33],67.1%
same,"viability, T/C",[34],50.1%
same,"viability, T/C",[35],9.58%
same,"viability, T/C",[36],1.5%
